Test results taken from ChEMBL document CHEMBL1156751, “Design, synthesis, and biological activity of bicyclic radester analogues as Hsp90 inhibitors” (Bioorg Med Chem Lett, 2009).
Values belong to the molecule of their own block, whether it stands above or below them.

Assays:
[1] = Inhibition of Hsp90 N-terminal assessed as Her2 degradation by Western blotting
[2] = Inhibition of Hsp90 N-terminal assessed as increase in Hsp70 level
SK-BR-3 = assay: Antiproliferative activity against human SK-BR-3 cells; type: functional, cell-based
MCF7 [3] = assay: Antiproliferative activity against human MCF7 cells; type: functional, cell-based
[4] = Inhibition of Hsp90 N-terminal assessed as AKt degradation by Western blotting
[5] = Inhibition of Hsp90 N-terminal assessed as c-RAF degradation by Western blotting
MCF7 [6] = assay: Selectivity ratio of IC50 for human SKBr3 cells to IC50 for human MCF7 cells; type: functional

Compound: COC1=C(CC(C)OC(=O)c2cc(Cl)c(O)cc2O)C(=O)C(NC=O)=CC1=O (stereo not drawn) [RADESTER]
IC50 (MCF7 [3]): 13.9 µM

Compound: COC1=C(CCC2Cc3c(Cl)c(O)cc(O)c3C2=O)C(=O)C(NC=O)=CC1=O (stereo not drawn)
Ratio IC50 (MCF7 [6]): 3 | IC50 (SK-BR-3): 47.3 µM | IC50 (MCF7 [3]): 15.1 µM

Compound: COC1=C(C/C=C2/CCc3c(Cl)c(O)cc(O)c3C2=O)C(=O)C(NC=O)=CC1=O
IC50 (SK-BR-3): 12.5 µM | IC50 (MCF7 [3]): 11.8 µM

Compound: C[C@@H]1C[C@H]2O[C@@H]2/C=C\C=C\C(=O)Cc2c(Cl)c(O)cc(O)c2C(=O)O1 [RADICICOL]
IC50 (SK-BR-3): 0.0375 µM | IC50 (MCF7 [3]): 0.0477 µM

Compound: COC1=C2C[C@@H](C)C[C@H](OC)[C@H](O)[C@@H](C)/C=C(\C)[C@H](OC(N)=O)[C@@H](OC)/C=C\C=C(/C)C(=O)NC(=CC1=O)C2=O [GELDANAMYCIN]
IC50 (SK-BR-3): 0.0158 µM | IC50 (MCF7 [3]): 0.0161 µM

Compound: COC1=C(C/C=C2/Cc3c(Cl)c(O)cc(O)c3C2=O)C(=O)C(NC=O)=CC1=O
Ratio IC50 (MCF7 [6]): 3 | IC50 (SK-BR-3): 40.8 µM | IC50 (MCF7 [3]): 15.2 µM

Second part, led by results:

Activity [1]: Dose-dependent effect | Activity [2]: Dose-dependent effect | IC50 (SK-BR-3): 10.5 µM | IC50 (MCF7 [3]): 9.5 µM | Activity [4]: Dose-dependent effect | Activity [5]: Dose-dependent effect
Compound: COc1c(O)cc(NC=O)c(O)c1CCC1CCc2c(Cl)c(O)cc(O)c2C1=O (stereo not drawn)

Activity [1]: Dose-dependent effect | Activity [2]: Dose-dependent effect | IC50 (SK-BR-3): 42.1 µM | IC50 (MCF7 [3]): 12.9 µM | Activity [4]: Dose-dependent effect | Activity [5]: Dose-dependent effect
Compound: COc1c(O)cc(NC=O)c(O)c1CCC1Cc2c(Cl)c(O)cc(O)c2C1=O (stereo not drawn)
Ratio IC50 (MCF7 [6]): 3

IC50 (SK-BR-3): 12.8 µM | IC50 (MCF7 [3]): 11.4 µM
Compound: COC1=C(CCC2CCc3c(Cl)c(O)cc(O)c3C2=O)C(=O)C(NC=O)=CC1=O (stereo not drawn)
